Consider one compound from patent US10238679B2, “Antitumor activity of multi-kinase inhibitors in colorectal cancer” (ENTRECHEM, S.L, priority 2014, dated 2019).

Molecules are shown by their SMILES.

Series [1] has as its system HT29 cells. In words: Cell cycle analysis by flow cytometry (propidium iodide), HT29. Type of series: cell-based. Conditions: 500 nM, 24 h. The method, then: (§1) Cell cycle analyses and evaluation of apoptosis were performed by flow cytometry using propidium iodide and Annexin V, respectively.
(§2) For cell cycle analyses, SW620 and HT29 cells were cultured in 100-mm culture dishes, grown to 70% confluence, and treated with 500 nM Formula (III) for 24 h. Cell monolayers were then incubated in trypsin—EDTA and resuspended in 1 mL of PBS. After three washes with PBS, the cell pellets were resuspended in ice cold 70% ethanol for 2 min and centrifuged 5 min at 1800 rpm. The cell pellets were treated with 1 mL of propidium iodide (PI) staining solution (PBS containing 50 μg/mL of PI, 0.5% Tween 20, 0.1 μg/mL RNase A) (BD Biosciencies) and incubated in the dark for 1 h. DNA content and cell cycle analyses were performed by using a FACS canto II flow cytometer and the CellQuest software (BD Biosciences).
A general note: In flow cytometry, cells or beads pass a laser one at a time.

For series [2], the system named is HT29 cells. In words: Apoptosis by Annexin V flow cytometry, HT29. Type of series: cell-based. Conditions: 48 hours. The method, then: as §1
(§3) For apoptosis analyses, SW620 and HT29 cell monolayers were incubated in trypsin—EDTA, washed twice with cold PBS, and then resuspended in binding buffer (10 mM HEPES free acid [pH 7.4], 140 mM NaCl, 2.5 mM CaCl2) at a concentration of 1×10^6 cells per mL. A total of 1×10^5 cells were incubated for 15 minutes in the dark with Annexin V-APC (BD Biosciences) and propidium iodide (PI) staining solution (5 μL Annexin […], 10 μL of PI [[…] final concentration], 400 μL binding buffer).

The subject of series [3] is HT29 cells. In words: MTT metabolization, HT29 cell proliferation. Type of series: cell-based. The method, then:
(§4) SW620, HT29 and SW48 were grown in DMEM; this medium was purchased from Sigma Aldrich, supplemented with 10% FBS, 100 mU/mL penicillin, 100 μg/mL streptomycin and 2 mM L-glutamine, in a 5% CO2 atmosphere at 37° C. These colorectal cancer cell lines were obtained from the American Type Culture Collection Cell Biology Collection (ATCC) (Manassas, Va.). The medium was changed every 2 days.
(§5) Cell proliferation and growth experiments were carried out using 3-(4,5-dimethylthiazol-2-yl)-2,5-diphenyltetrazolium bromide (MTT) uptake assays, where MTT is reduced to purple formazan by the mitochondria of living cells. Increase in cell number is detected by augmented MTT metabolization, and decrease in cell number is reflected by a decrease. SW620, HT29 and SW48 cells were plated at a density of 1×10^4 cells per well in 24-well plates and cultured overnight in DMEM supplemented with 10% FBS. The cells were treated with the drug at different concentrations to plot the dose—response curves in all cancer cell lines using in the study. […] After treatment, each well was replaced with 250 μL of fresh medium containing MTT ([…]) and incubated for 1 hour. The medium was then removed and 500 μL of dimethyl sulfoxide was added to each well. The plate was agitated in the dark for 5 minutes to dissolve the MTT-formazan crystals. The absorbance of the samples was recorded at 562 nm in a multi-well plate reader (BMG labtech). Results were plotted as the mean values of quadruplicates from a representative experiment that was repeated at least two independent times.
(§6) Combination index values less than 1 indicate synergism, values equal to 1 indicate an additive effect, whereas values greater than 1 indicate antagonism. Combination index values from three independent experiments were generated.

Series [4] has as its system SW620 cells. In words: Cell cycle analysis by flow cytometry (propidium iodide), SW620. Format: cell-based. The settings on record: 500 nM, 24 h. As to the method: as §1, §2
In series [5] the test system is pS6 and Src in HT29 cells. In words: Phospho-kinase dot blot array and Western blot, HT29. Format: cell-based. Conditions: 500 nM, at 6 hours. As to the method:
(§7) Western-blot and phospho-array kits were used for evaluation of signaling intermediates. SW620 and HT29 cell lines were grown in DMEM 10% of FBS and at 70% confluence were treated with Formula (III) at 500 nM for 6, 12 and 24 hours. Cells were washed with phosphate-buffered saline (PBS) (137 mM NaCl, 2.7 mM KCl, 8 mM Na2HPO4, 1.5 mM KH2PO4) and lysed in ice-cold lysis buffer (20 mM Tris-HCl [pH 7.0], 140 mM NaCl, 50 mM EDTA, 10% glycerol, 1% Nonidet P-40, 1 μM pepstatin, 1 μg/mL aprotinin, 1 μg/mL leupeptin, 1 mM phenylmethyl sulfonyl fluoride, 1 mM sodium orthovanadate). Lysates were centrifuged at 10000 g at 4° C. for 10 minutes. The protein level in the supernatants was quantified using BCA protein assay (Sigma Aldrich). A total of 50 μg of protein of each sample was used for analysis. Samples were then boiled in electrophoresis sample buffer and placed on 6%-15% sodium dodecyl sulfate-polyacrylamide gel electrophoresis (SDS-PAGE) gels, depending on the molecular weight of the proteins to be analyzed. Briefly, after electrophoresis, proteins in gels were transferred to polyvinylidene difluoride membranes (Millipore Corporation). Membranes were blocked in Tris-buffered saline with Tween (TBST) (100 mM Tris [pH 7.5], 150 mM NaCl, 0.05% Tween 20) containing 1% of bovine serum albumin for 1 h and then incubated overnight with the corresponding antibody. […]
Background: A western blot detects proteins with antibodies after separation by electrophoresis.

The test system of series [6] is a range of tyrosine and serine/threonine kinases. The settings on record: biochemical assays; background statement; cited from earlier work.
Series [7] concerns phosphorylated γH2AX in SW620 cells. In words: Western blot of DNA damage marker phosphorylated γH2AX, SW620. Type of series: cell-based. The settings on record: 500 nM, time dependent up to 24 h. The method, then: as §7
Series [8] has as its system pS6, AKT, Src and Lck in SW620 cells. In words: Phospho-kinase dot blot array and Western blot, SW620. Type of series: cell-based. Conditions: 500 nM, at 6 hours or 12 hours. The method, then:
as §7

Series [9] has as its system SW620, HT29 and SW48 cells. In words: MTT metabolization, colorectal cancer cell lines (IC50 dose, line not specified). Type of series: cell-based. The settings on record: dose used for time-response curve. As to the method:
as §5

For series [10], the system named is SW620 cells. In words: Apoptosis by Annexin V flow cytometry, SW620. Format: cell-based. The settings on record: 48 hours. As to the method: as §1, §3
Series [11] has as its system phosphorylated γH2AX in HT29 cells. In words: Western blot of DNA damage marker phosphorylated γH2AX, HT29. Type of series: cell-based. The settings on record: 500 nM, time dependent up to 24 h. The method, then:
as §7

The conditions of series [12]: animal models; background statement; cited from earlier work.
For series [13], the system named is SW620 cells. In words: MTT metabolization, SW620 cell proliferation. Type of series: cell-based. As to the method:
as §4, §5, §6

Where [14] appears, read: doses in the submicromolar (nanomolar) range.

In the case of `C[C@]12O[C@H](C[C@H](O)[C@H]1O)n1c3ccccc3c3c4c(c5c6ccccc6n2c5c31)C(=O)NC4=O` [Formula (III)], the “effect on cell cycle” value in series [1] and in [4] was “strong arrest in G2/M phase” each time. The “apoptosis (Annexin staining)” value in series [2] and in series [10] was “induction of apoptosis” each time. Further, the “half-maximal inhibitory effect (MTT metabolization)” value in series [3] and in [13] was “nanomolar range” each time. The growth inhibition entry in series [3] (setting [14]) and in series [13] (setting [14]) was “more than 80%” in each case. Further, the “effect on proliferation compared with other inhibitors” value in series [3] (vs lapatinib, sunitinib, crizotinib, BEZ235, NVP-BSK805, dasatinib) is given as “strong effect”; in [13] (vs lapatinib, sunitinib, crizotinib, BEZ235, NVP-BSK805, dasatinib, 0 to 2 μM, 72 h), “strong effect”. Moreover, the “phosphorylation/activation status of pS6 and Src” value in series [5] is recorded as “inhibited”. For the same compound, the “affinity towards and inhibition of kinase activity” value in [6] was “nanomolar and subnanomolar range”. Also, the “phosphorylated levels of γH2AX (DNA damage)” value in series [7] and in series [11] was “increase in the phosphorylated levels of γH2AX” each time. In addition, the “phosphorylation/activation status of kinases pS6, AKT, Src and Lck” value in series [8] was “strongly inhibited”. In addition, in [9], the IC50 (in general, the concentration needed to halve the response being measured) was determined as 500 nM. Besides, in series [12], the “anti-tumoral activity in vivo” value is recorded as “anti-tumoral activity”. Further, the toxicities in vivo entry in series [12] was “no evidence of toxicities”.
